The source of these data is publication PMC10350917 (Journal of Medicinal Chemistry, 2023).

SMILES strings stand for the structures. Where two headings read alike, the source gives them in different places. Where only a bound is given, the exact number is not on record here.

For data set [1], the target named is T1, ADC-7 (Acinetobacter baumannii, UniProt Q6DRA1). In words: Inhibition kinetics (competition with nitrocefin), ADC-7. Conditions: 100 μM nitrocefin, 3 min pre-incubation, Cheng–Prusoff corrected. The class given is biochemical. How it is done:
(§1) For inhibition kinetics, utilizing nitrocefin (NCF) as a colorimetric substrate, the inhibition constant (Ki) of MB076 and S02030 BATSI with ADCs was determined using competition kinetics as previously described.[10],[25],[28],[34] The measurements of the initial velocities were performed with the addition of 100 μM NCF after a 3 min pre-incubation of the enzyme (2 nM) with increasing concentration of the inhibitor. […] The Ki value was corrected for the NCF affinity (KM values for each ADC variant listed in Table 1) with the Cheng–Prusoff[35] equation: [drawing 2]

For data set [2], the target named is T2, ADC-30 (Acinetobacter baumannii, UniProt A7XM81). In words: Inhibition kinetics (competition with nitrocefin), ADC-30. The class given is biochemical. Conditions: 100 μM nitrocefin, 3 min pre-incubation. The method, then:
as §1

The target of data set [3] is T3, ADC-162 (Acinetobacter baumannii, UniProt A0A2H4PPJ8). In words: Inhibition kinetics (competition with nitrocefin), ADC-162. The class given is biochemical. How it is done: as §1
Data set [4] deals with T4, ADC-33 (Acinetobacter baumannii, UniProt A7Y407). In words: Inhibition kinetics (competition with nitrocefin), ADC-33. The class given is biochemical. Conditions: 100 μM nitrocefin, 3 min pre-incubation. The method, then:
as §1

The target in the next data set is ADC variants. In words: Inhibition kinetics, statement for all ADC variants. It counts as biochemical, Acinetobacter baumannii. The conditions noted are these: bound stated for all ADC variants of the study. The method, then:
as §1

The test system of data set [5] is ADC-212 in pBCSK(−) E. coli DH10B. In words: Broth microdilution AST, ADC-212. It counts as cell-based. The conditions noted are these: for MIC: Escherichia coli, E. coli DH10B ADC-212, MB076 fixed at 10 mg/L in combinations, FDC in iron-depleted broth. How it is done:
(§2) Susceptibility testing to standard antibiotics was performed by broth microdilution or agar dilution using an Oxoid replicator according to 2021 Clinical and Laboratory Standards Institute (CLSI) guidelines. MICs for CAZ, CTX, FEP, and TOL were determined using cation-adjusted Mueller Hinton MH broth, and MICs for FDC were done in iron-depleted cation-adjusted MH broth according to CLSI methods. MB076, S02030, and VAB were used at a fixed concentration of 10 mg/L. All MICs were interpreted according to the 2021 CLSI guidelines.[43]
(§3) blaADC-7 pBCSK- was cloned and expressed in E. coli DH10B cells as previously described.[44] All other blaADC variants were synthesized by GenScript according to the blaADC-7 pBCSK- strategy, cloning into the XbaI/BamHI sites of the pBCSK- vector.

In data set [6] the test system is ADC-33 in pBCSK(−) E. coli DH10B. In words: Agar dilution AST, ADC-33. It counts as cell-based. The method, then: as §2, §3
On the technique in general: In agar dilution, organisms are placed on agar that contains the substance at set levels.

A short description of the next data set: in vitro. Conditions: human, plasma, pH 7.4. How it is done:
(§4) The in vitro stability of MB076 and S02030 was evaluated by incubating the compounds in both buffer (pH 7.4) and human plasma at 37 °C over 48 h. Half-lives (t1/2) were then calculated for each compound.
(§5) Plasma and buffer stability samples were analyzed by monitoring the disappearance of the compounds using high-performance liquid chromatography-mass spectrometry (LC–MS) techniques.
Half-lives (t1/2) were calculated in Origin using a one-phase decay model with t1/2 = ln(2)/b, where b is the slope of a linear plot of natural logarithm (ln) of the remaining compound concentration (C) versus incubation time. Each condition was tested in triplicate.

Another data set in a line: physchem. The conditions noted are these: buffer, pH 7.4. How it is done: as §4, §5
Standard solutions were prepared by adding the compound in DMSO (2.5 μM) to 0.1 M phosphate buffer pH 7.4 and MeOH. Solutions were vortexed, filtered, and analyzed by LC–MS (At=0). Samples were then prepared by adding a solution of the compound in DMSO (2.5 μM) to phosphate buffer pH 7.4 and incubating at 37 °C. At suitable time intervals, the reaction was stopped by the addition of MeOH. The solutions were vortexed and filtered. Degradation time courses were followed by LC–MS enabling the quantitation of compounds. Half-lives (t1/2) were calculated in Origin using a one-phase decay model with t1/2 = ln(2)/b, where b is the slope of a linear plot of natural logarithm (ln) of the remaining compound concentration (C) versus incubation time. Each condition was tested in triplicate.

Data set [7] has as its target T3, ADC-162. Conditions: substrate. The method, then:
(§6) Steady-state kinetic parameters were determined by combining pure enzyme with antibiotic substrates in 50 mM NaH2PO4, pH 7.4 at room temperature. Changes in absorbance were measured on a Cary 60 UV–Vis spectrophotometer (Agilent Technologies) and converted to velocity using the change in extinction coefficient specific to nitrocefin (ε482 = 17,400 M^–1·cm^–1), cephalothin (ε262 = 7660 M^–1·cm^–1), ceftazidime (ε260 = 8660 M^–1·cm^–1), cefotaxime (ε260 = 7500 M^–1·cm^–1), cefepime (ε260 = 750 M^–1·cm^–1), cefiderocol (ε259 = 9430 M^–1·cm^–1), and ceftolozane (ε254 = 6810 M^–1·cm^–1). Initial velocities were fit to the Michaelis–Menten equation yielding kcat and KM values. For ADC/substrate combinations in which the KM was too large to accurately determine both kcat and KM values, the initial velocities at kcat/KM values were calculated from linear fits of vo in low [S] ranges (<0.08 × KM).

The target of data set [8] is T2, ADC-30. How it is done: as §6
In data set [9] the target is T4, ADC-33. The method, then:
as §6

Data set [10] has as its target T1, ADC-7. How it is done:
as §6

Another data set deals with ADC-212 (Acinetobacter baumannii, UniProt A8QIF8, A224D/INS243L/P244A). The class given is biochemical. Conditions: substrate. The method, then: as §6
A further data set deals with ADC-219 (Acinetobacter baumannii, UniProt A7Y407, G248D). It counts as biochemical. Conditions: substrate. How it is done:
as §6

For data set [11], the system named is ADC-7 in pBCSK(−) E. coli DH10B. The data set can be described thus: Broth microdilution AST, ADC-7. The class given is cell-based. The conditions noted are these: Escherichia coli, E. coli DH10B ADC-7, MB076 fixed at 10 mg/L in combinations, FDC in iron-depleted broth. How it is done: as §2, §3
Data set [12] concerns ADC-30 in pBCSK(−) E. coli DH10B. The data set can be described thus: Broth microdilution AST, ADC-30. It counts as cell-based. Conditions: Escherichia coli, E. coli DH10B ADC-30, MB076 fixed at 10 mg/L in combinations, FDC in iron-depleted broth. How it is done: as §2, §3
Data set [13] concerns ADC-33 in pBCSK(−) E. coli DH10B. The data set can be described thus: Broth microdilution AST, ADC-33. It counts as cell-based. Conditions: Escherichia coli, E. coli DH10B ADC-33, MB076 fixed at 10 mg/L in combinations, FDC in iron-depleted broth. How it is done: as §2, §3
The subject of data set [14] is ADC-219 in pBCSK(−) E. coli DH10B. The data set can be described thus: Broth microdilution AST, ADC-219. It counts as cell-based. Conditions: Escherichia coli, E. coli DH10B ADC-219, MB076 fixed at 10 mg/L in combinations, FDC in iron-depleted broth. The method, then:
as §2, §3

Data set [15] has as its system ADC-7 in pBCSK(−) E. coli DH10B. In words: Agar dilution AST, ADC-7. It counts as cell-based. The conditions noted are these: Escherichia coli, E. coli DH10B ADC-7, MB076, S02030, VAB fixed at 10 mg/L. How it is done:
as §2, §3

In data set [16] the test system is ADC-30 in pBCSK(−) E. coli DH10B. In words: Agar dilution AST, ADC-30. The class given is cell-based. The conditions noted are these: Escherichia coli, E. coli DH10B ADC-30, MB076, S02030, VAB fixed at 10 mg/L. The method, then: as §2, §3
The subject of data set [17] is ADC-162 in pBCSK(−) E. coli DH10B. In words: Agar dilution AST, ADC-162. The class given is cell-based. Conditions: Escherichia coli. How it is done: as §2, §3
Data set [18] relates to ADC-212 in pBCSK(−) E. coli DH10B. The data set can be described thus: Agar dilution AST, ADC-212. The conditions noted are these: Escherichia coli, E. coli DH10B ADC-212, MB076, S02030, VAB fixed at 10 mg/L. It counts as cell-based. How it is done:
as §2, §3

Data set [19] deals with ADC-219 in pBCSK(−) E. coli DH10B. In words: Agar dilution AST, ADC-219. It counts as cell-based. The conditions noted are these: Escherichia coli, E. coli DH10B ADC-219, MB076, S02030, VAB fixed at 10 mg/L. The method, then: as §2, §3

Consider `Nc1nnc(SCC(=O)N[C@@H](Cn2cc(C(=O)O)nn2)B(O)O)s1` [MB076, (R)-1-(2-(2-((5-Amino-1,3,4-thiadiazol-2-yl)thio)acetamido)-2-boronoethyl)-1H-1,2,3-triazole-4-carboxylic Acid], for which the Ki on ADC-7 [1] is 210 ± 16 nM; at ADC-30 [2], 58 ± 5 nM; on ADC-162 [3] it was 790 ± 39 nM; at ADC-33 [4], 100 ± 4 nM; on ADC variants, less than 1000 nM. Further, in [5] (ADC-212, MB076 10 mg/L), the “reduction of the CTX MIC by MB076” value is 3 fold doubling dilution. In addition, the “increase of susceptibility to CAZ relative to S02030” value in [6] (ADC-33 variant, inhibitors 10 mg/L) is given as 3 fold. The same compound showed a half-life at 2.5 μM in “in vitro” of 29 h. This compound showed a half-life in “physchem” of 33 h.
`CO/N=C(\C(=O)N[C@@H]1C(=O)N2C(C(=O)O)=C(COC(C)=O)CS[C@H]12)c1csc(N)n1` [cefotaxime]: the kcat at ADC-162 [7] was found to be 25.4 s^–1; at ADC-30 [8], 0.12 s^–1; at ADC-33 [9], 0.46 s^–1; on ADC-7 [10], 0.048 s^–1; on ADC-212, 12.0 s^–1; on ADC-219, 44.2 s^–1. For the same compound, the Km at ADC-162 [7] (50 mM NaH2PO4 pH 7.4, room temperature) was found to be 115 µM; on ADC-30 [8] (ADC-30, substrate, 50 mM NaH2PO4 pH 7.4, room temperature), 4.35 ± 1.81 µM; at ADC-33 [9] (ADC-33, substrate, 50 mM NaH2PO4 pH 7.4, room temperature) it was 7.11 ± 1.05 µM; on ADC-7 [10] (ADC-7, substrate, 50 mM NaH2PO4 pH 7.4, room temperature), 1.23 ± 0.17 µM. Further, the MIC in [11] was 64 µg/mL; in data set [12] it was 64 µg/mL; in data set [13] it was 128 µg/mL; in data set [5], 128 µg/mL; in data set [14], 16 µg/mL.
In the case of `CC(C)(O/N=C(\C(=O)N[C@@H]1C(=O)N2C(C(=O)[O-])=C(C[n+]3ccccc3)CS[C@H]12)c1csc(N)n1)C(=O)O` [ceftazidime], the kcat at ADC-33 [9] (ADC-33, substrate) turned out to be 3.71 s^–1. Also, the MIC in [11] turned out to be 64 µg/mL; in data set [12] it was 128 µg/mL; in [13] it was 2050 µg/mL; in data set [5], 512 µg/mL; in data set [14], 256 µg/mL; in [15] it was 64 µg/mL. In addition, the MIC in data set [16] worked out at 64 µg/mL; in data set [6] (Escherichia coli, E. coli DH10B ADC-33, MB076, S02030, VAB fixed at 10 mg/L), 1020 µg/mL; in [17], 128 µg/mL; in data set [18], 256 µg/mL; in data set [19] it was 64 µg/mL.

The term Ki denotes a measure of affinity in units of concentration, obtained from inhibition or displacement. As usually defined, the half-life is the time in which the quantity being followed falls by half. A higher half-life goes with slow loss. Broadly, the Km is the concentration of substrate that gives half-maximal velocity. By MIC is commonly meant the lowest concentration found to suppress growth.
